{
  "source": "patent US12180193B2",
  "about": "“Accelerating fibrosarcoma protein degrading compounds and associated methods of use” (Arvinas Operations, Inc., priority 2020, dated 2024)",
  "key": {"BRAF V600E": {"target": "T1, BRAF V600E (Homo sapiens, UniProt P15056, V600E)", "T1 construct": "expressed in transfected cells", "T1 sequence (P15056 whole entry V600E)": "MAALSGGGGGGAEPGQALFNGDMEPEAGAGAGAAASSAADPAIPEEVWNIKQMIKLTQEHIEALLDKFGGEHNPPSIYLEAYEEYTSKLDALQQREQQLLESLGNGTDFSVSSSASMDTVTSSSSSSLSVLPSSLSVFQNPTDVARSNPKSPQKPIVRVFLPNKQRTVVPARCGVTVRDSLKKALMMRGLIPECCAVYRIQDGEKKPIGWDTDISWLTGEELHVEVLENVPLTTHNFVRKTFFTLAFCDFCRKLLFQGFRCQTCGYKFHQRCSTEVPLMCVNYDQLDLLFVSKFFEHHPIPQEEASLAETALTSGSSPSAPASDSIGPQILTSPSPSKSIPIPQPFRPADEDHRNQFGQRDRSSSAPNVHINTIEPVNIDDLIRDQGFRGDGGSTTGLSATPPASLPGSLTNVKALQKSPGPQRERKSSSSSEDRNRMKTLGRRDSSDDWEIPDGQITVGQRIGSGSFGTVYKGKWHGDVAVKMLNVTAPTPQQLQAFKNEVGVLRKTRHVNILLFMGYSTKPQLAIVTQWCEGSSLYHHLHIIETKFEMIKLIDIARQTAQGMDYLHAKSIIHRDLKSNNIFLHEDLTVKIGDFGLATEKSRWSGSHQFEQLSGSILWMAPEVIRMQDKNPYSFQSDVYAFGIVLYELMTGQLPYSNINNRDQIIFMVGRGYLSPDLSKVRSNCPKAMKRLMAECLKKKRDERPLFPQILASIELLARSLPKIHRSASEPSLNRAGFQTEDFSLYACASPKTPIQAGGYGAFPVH", "test": "Cellular assay of target protein degradation, T-Rex 293 cells stably transfected with HA-BRAF_V600E (HA immunofluorescence, high content imaging)", "format": "cell-based", "settings": "T-Rex 293 HA-BRAF V600E; for DC50: half maximal degradation, read-out: BRaf V600E DC50; for Dmax: maximum degradation observed", "how_it_was_run": "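HA immunofluorescence on fixed cells, imaged by high-content reader, measured loss of HA-BRAF V600E in stably transfected T-Rex 293 cells induced with 1 ng/mL doxycycline. Compounds were applied for 24 h at 37 °C (final 0.1 nM–1 μM, 0.1% DMSO); DC50 and Dmax (% of control) were reported.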"}, "BRAF G466V": {"target": "T2, BRAF G466V (Homo sapiens, UniProt P15056, G466V)", "T2 construct": "expressed in transfected cells", "T2 sequence (P15056 whole entry G466V)": "as the sequence (P15056 whole entry V600E) above, with G466V, E600V counted along it", "test": "Cellular assay of target protein degradation, T-Rex 293 cells stably transfected with HA-BRAF G466V (HA immunofluorescence, high content imaging)", "format": "cell-based", "settings": "T-Rex 293 HA-BRAF G466V; for DC50: half maximal degradation, read-out: BRaf G466V DC50; for Dmax: maximum degradation observed", "how_it_was_run": "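HA-BRAF G466V levels were read by HA immunofluorescence and high-content imaging after 24 h compound exposure (final 30 nM–3 pM, 0.1% DMSO, 37 °C). Expression was induced with 0.75 ng/mL doxycycline. Outputs: half-maximal degradation concentration (DC50) and maximal degradation (Dmax) relative to control.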"}},
  "data": [
    {"smiles": "O=C1CC[C@@H](N2Cc3cc(N4CCC(CN5CCN(c6ccc(-c7cnc8[nH]cc(C(=O)c9c(F)ccc(NS(=O)(=O)N%10CC[C@@H](F)C%10)c9F)c8c7)cc6)CC5)CC4)c(F)cc3C2=O)C(=O)N1", "note": "[Compound 41, (3R)-N-{3-[5-(4-{4-[(1-{2-[(3R)-2,6-dioxopiperidin-3-yl]-6-fluoro-1-oxo-2,3-dihydro-1H-isoindol-5-yl}piperidin-4-yl)methyl]piperazin-1-yl}phenyl)-1H-pyrrolo[2,3-b]pyridine-3-carbonyl]-2,4-difluorophenyl}-3-fluoropyrrolidine-1-sulfonamide]", "values": [
      {"measurement": "DC50", "setting": "BRAF V600E", "value": "> 500", "unit": "nM"},
      {"measurement": "Dmax", "setting": "BRAF V600E", "value": "> 70", "unit": "%"},
      {"measurement": "DC50", "setting": "BRAF G466V", "value": "1 to 10", "unit": "nM"},
      {"measurement": "Dmax", "setting": "BRAF G466V", "value": "35 to 70", "unit": "%"}
    ]},
    {"smiles": "O=C1CCC(N2Cc3cc(N4CC5(CN(CC#Cc6ccc(-c7cnc8[nH]cc(C(=O)c9c(F)ccc(NS(=O)(=O)N%10CC[C@@H](F)C%10)c9F)c8c7)cc6)C5)C4)ccc3C2=O)C(=O)N1", "note": "(stereo partly drawn) [Compound 42, (3R)-N-(3-{5-[4-(3-{6-[2-(2,6-dioxopiperidin-3-yl)-1-oxo-2,3-dihydro-1H-isoindol-5-yl]-2,6-diazaspiro[3.3]heptan-2-yl}prop-1-yn-1-yl)phenyl]-1H-pyrrolo [2,3-b]pyridine-3-carbonyl}-2,4-difluorophenyl)-3-fluoropyrrolidine-1-sulfonamide]", "values": [
      {"measurement": "DC50", "setting": "BRAF V600E", "value": "5 to 50", "unit": "nM"},
      {"measurement": "Dmax", "setting": "BRAF V600E", "value": "35 to 70", "unit": "%"},
      {"measurement": "DC50", "setting": "BRAF G466V", "value": "1 to 10", "unit": "nM"},
      {"measurement": "Dmax", "setting": "BRAF G466V", "value": "35 to 70", "unit": "%"}
    ]},
    {"smiles": "O=C1CCC(N2Cc3cc(OC4CC5(C4)CN(c4ccc(-c6cnc7[nH]cc(C(=O)c8c(F)ccc(NS(=O)(=O)N9CC[C@@H](F)C9)c8F)c7c6)cc4)C5)ccc3C2=O)C(=O)N1", "note": "(stereo partly drawn) [Compound 43, (3R)-N-(3-{5-[4-(6-{[2-(2,6-dioxopiperidin-3-yl)-1-oxo-2,3-dihydro-1H-isoindol-5-yl]oxy}-2-azaspiro[3.3]heptan-2-yl)phenyl]-1H-pyrrolo[2,3-b]pyridine-3-carbonyl}-2,4-difluorophenyl)-3-fluoropyrrolidine-1-sulfonamide]", "values": [
      {"measurement": "DC50", "setting": "BRAF V600E", "value": "50 to 500", "unit": "nM"},
      {"measurement": "Dmax", "setting": "BRAF V600E", "value": "35 to 70", "unit": "%"},
      {"measurement": "DC50", "setting": "BRAF G466V", "value": "10 to 30", "unit": "nM"},
      {"measurement": "Dmax", "setting": "BRAF G466V", "value": "35 to 70", "unit": "%"}
    ]},
    {"smiles": "COc1cc(OCCN2CCN(CCOc3ccc(-c4cnc5[nH]cc(C(=O)c6c(F)ccc(NS(=O)(=O)N7CC[C@@H](F)C7)c6F)c5c4)cc3)CC2)cc2c1C(=O)N([C@H]1CCC(=O)NC1=O)C2", "note": "[Compound 44, (3R)-N-(3-{5-[4-(2-{4-[2-({2-[(3S)-2,6-dioxopiperidin-3-yl]-7-methoxy-1-oxo-2,3-dihydro-1H-isoindol-5-yl}oxy)ethyl]piperazin-1-yl}ethoxy)phenyl]-1H-pyrrolo[2,3-b]pyridine-3-carbonyl}-2,4-difluorophenyl)-3-fluoropyrrolidine-1-sulfonamide]", "values": [
      {"measurement": "DC50", "setting": "BRAF V600E", "value": "5 to 50", "unit": "nM"},
      {"measurement": "Dmax", "setting": "BRAF V600E", "value": "35 to 70", "unit": "%"},
      {"measurement": "DC50", "setting": "BRAF G466V", "value": "< 1", "unit": "nM"},
      {"measurement": "Dmax", "setting": "BRAF G466V", "value": "35 to 70", "unit": "%"}
    ]},
    {"smiles": "COc1cc(OCCN2CCN(CCOc3ccc(-c4cnc5[nH]cc(C(=O)c6c(F)ccc(NS(=O)(=O)N7CC[C@@H](F)C7)c6F)c5c4)cc3)CC2)cc2c1C(=O)N([C@@H]1CCC(=O)NC1=O)C2", "note": "[Compound 45, (3R)-N-(3-{5-[4-(2-{4-[2-({2-[(3R)-2,6-dioxopiperidin-3-yl]-7-methoxy-1-oxo-2,3-dihydro-1H-isoindol-5-yl}oxy)ethyl]piperazin-1-yl}ethoxy)phenyl]-1H-pyrrolo[2,3-b]pyridine-3-carbonyl}-2,4-difluorophenyl)-3-fluoropyrrolidine-1-sulfonamide]", "values": [
      {"measurement": "DC50", "setting": "BRAF V600E", "value": "5 to 50", "unit": "nM"},
      {"measurement": "Dmax", "setting": "BRAF V600E", "value": "35 to 70", "unit": "%"},
      {"measurement": "DC50", "setting": "BRAF G466V", "value": "< 1", "unit": "nM"},
      {"measurement": "Dmax", "setting": "BRAF G466V", "value": "35 to 70", "unit": "%"}
    ]},
    {"smiles": "O=C1CCC(N2Cc3cc(C4CCN(CC5CCN(c6ncc(-c7cnc8[nH]cc(C(=O)c9c(F)ccc(NS(=O)(=O)N%10CC[C@@H](F)C%10)c9F)c8c7)cn6)CC5)CC4)ccc3C2=O)C(=O)N1", "note": "(stereo partly drawn) [Compound 46, (3R)-N-[3-(5-{2-[4-({4-[2-(2,6-dioxopiperidin-3-yl)-1-oxo-2,3-dihydro-1H-isoindol-5-yl]piperidin-1-yl}methyl)piperidin-1-yl]pyrimidin-5-yl}-1H-pyrrolo[2,3-b]pyridine-3-carbonyl)-2,4-difluorophenyl]-3-fluoropyrrolidine-1-sulfonamide]", "values": [
      {"measurement": "DC50", "setting": "BRAF V600E", "value": "5 to 50", "unit": "nM"},
      {"measurement": "Dmax", "setting": "BRAF V600E", "value": "35 to 70", "unit": "%"},
      {"measurement": "DC50", "setting": "BRAF G466V", "value": "< 1", "unit": "nM"},
      {"measurement": "Dmax", "setting": "BRAF G466V", "value": "> 70", "unit": "%"}
    ]}
  ]
}
